Data taken from patent US11918686B2, “Lipid bilayer coated mesoporous silica nanoparticles with a high loading capacity for one or more anticancer agents” (The Regents of the University of California, priority 2013, dated 2024).
Blank lines part the entries; values can stand above or below the compound they belong to.

Assays:
[1] = in the clinic; cited from earlier work
[2] = Histology of kidney, liver and spleen; assay type: in vivo, mice; conditions: H&E, day 38
Procedure: (§1) (A) The animal treatments are described in the method section. BxPC3 cells were subcutaneously injected into mice 7 days before treatments (gray boxes). These animals received six i.v. injections (red boxes) every 3-6 days (green boxes) for 38 days as shown. The tumor inhibition effect of two-wave treatment was compared to saline, GEM-Lip alone, free GEM, empty liposome, and TGFβi-MSNP. Tumor size was accurately measured 1-2 times per week. Tumor weight was calculated according to the formula Tumor weight (mg)=(length in mm)×(width in mm)2/2. *P<0.05, compared to GEM-Lip group. (B) The animal weights were recorded at indicate time points and expressed for the experimental duration. *P<0.05, compared to saline; #P<0.05, compared to GEM-Lip. (C) Histological analyses of kidney sections were performed by UCLA DLAM diagnostic laboratory services. The sections were stained with hematoxylin/eosin (H&E) and examined by light microscopy. Representative images are shown. Higher magnification images were provided to shown the swelling and edema occur in Bowman's space, a morphological abnormality of GEM-induced renal toxicity. White arrows point to normal Bowman's space in glomerulus, and the black arrows point to the swelling and edema occur in Bowman's space.
Appropriate size sections of the tumor, liver, kidney, and spleen were fixed in 10% formalin and then embedded into paraffin. […]

PDAC = conditions: previously untreated PDAC patients with metastatic disease; cited from earlier work
[3] = Animal body weight during treatment; assay type: in vivo, nude mice; conditions: compared to saline-treated BxPC3 tumor-bearing mice
Procedure: as §1, with “Higher magnification images were provided to shown the swelling and edema occur in Bowman's space, a morphological abnormality of GEM-induced renal toxicity. White arrows point to normal Bowman's space in glomerulus, and the black arrows point to the swelling and edema occur in Bowman's space.” left out
One week after tumor implantation, the BxPC-3 tumor-bearing mice were randomly divided into six groups. […] The body weight and tumor size were accurately recorded one to two times per week. Tumor weight was calculated according to the formula Tumor weight (mg)=(length in mm)×(width in mm)^2/2.

[4] = test system: cytidine deaminase (CDA); BxPC3 cells; assay: Protection against CDA-mediated GEM inactivation (MTS assay); assay type: cell-based, human; conditions: CDA 100 ng/mL, 1 h at 37° C., then BxPC3 cells 72 h
Procedure: We also assess the ability of the liposome to protect GEM against the effect of on cytidine deaminase (CDA), which plays a key role in drug inactivation (circulatory half-life of <8 minutes) in the clinic. Briefly, free GEM or GEM-laden liposomes were mixed with CDA enzyme at a concentration of 100 ng/mL in the incubation medium for 1 h at 37° C. The incubation media were then added to BxPC3 cells, which were cultured in 96 wells plate for 72 h. IC50 values were determined by the MTS assay for each group. The results were compared to the IC50 values for GEM or GEM-liposomes, not incubated with CDA. […] By contrast, free GEM was not protected against the effect of CDA.

Blood biochemistry = assay type: in vivo, mice; conditions: serum
Procedure: Following the animal experiments described above, the mice were sacrificed on the 38th day and serum was collected by centrifuging the whole blood at 5,000 rpm for 15 min. The biochemical parameters were assayed by UCLA Division of Laboratory Animal Medicine (DLAM) diagnostic laboratory services.

[5] = test system: PC coverage of ECs in BxPC3 xenograft; assay: CD31/NG2 co-staining of ECs and PCs in BxPC3 xenograft; assay type: in vivo, nude mice; conditions: i.v., inhibitor dose 1 mg/kg, tumor collected 1-2 h post injection
Procedure: “T” indicates tumor cells. Arrows point out stroma. (B) Tumor-bearing animals (tumor size of 0.8˜1.0 cm in diameter) were divided into two groups and received i.v. injection of TGFβi-MSNP at inhibitor dose of 1 mg/kg (MSNP dose of 2 mg/kg). Saline and i.v. injection of free inhibitor at same dose were used as control. Tumor tissues were quickly collected 1-2 h post injection and OCT embedded for frozen section and dual color immunohistochemistry staining. The procedure of the staining was provided in the method section. This dual color staining that labels EC maker CD31 in green (FITC) and PC maker NG2 in red (Alexa fluor 594) were used to compare the effect of tumor blood vessel integrity and quantify the extent of PC/EC association. Zoom-in images were provided at higher magnification to show the extent of PC/EC association in each group. PC covered EC were quantified in three random fields in each group. *, P<0.05. […]
The tumor tissues were rapidly embedded by OCT reagent before sectioning to provide 4 m thick slices. […] The slides were visualized under a fluorescence microscope. The PC coverage was counted from three randomly selected fields.

[6] = test system: Smad2 phosphorylation in PCs; assay: Smad2 activation assay (pSmad2 immunofluorescence); assay type: cell-based, human; conditions: PCs treated with 2 ng/mL TGF-β, inhibitor dose of 1 M
Procedure: (A) HDME cells (10^4 cells/mL) and HSM cells (5×10^3 cells/mL) were first stained by CellTracker™ Green CMFDA (Invitrogen, Grand Island, NY) and CellTracker™ Red CMTPX (Invitrogen, Grand Island, NY) according the manufacture's instruction 24 h before experiment. After live cell staining, ECs were treated with 2 ng/mL of TGF-β for 3 h and PCs were treated with […] or TGFβi-MSNP at inhibitor dose of 1 μM for 3 h. Subsequently, both cell types were co-cultured in Matrigel-coated 6-well plates for further incubation of 16 h at 37° C. PC/EC adhesions were quantitatively determined from five fields of three independent samples with the fluorescent microscope (Zeiss, Germany). *, P<0.05. (B) Use of immunofluorescence assay to determine the level of Smad2 phosphorylation. PCs were seeded in 8-well chamber slides. 16 h post cell seeding, PCs were treated with 2 ng/mL TGF-β for 3 h. Subsequently, the cells were treated with TGFβi-laden MSNP at the inhibitor dose of 1 M for 1-24 h. […] The slides were visualized under a fluorescence microscope. (C) The signal intensity of the green channel, reflecting activated Smad2 (pSmad2), was calculated by Image J software (version 1.37c, NIH). *, P<0.05.
Smad2 activation was determined using an immunofluorescent staining in 8-well chamber slides in which 4×10^4 PCs were cultured in each well containing 0.4 mL culture medium. […]

tumor = conditions: animal study; cited from earlier work

ALB (Blood biochemistry; day 38): 3.2 ± 0.1 g/dL
ALP (Blood biochemistry; day 38): 55.8 ± 9.8 U/L
BUN (Blood biochemistry; day 38): 38.0 ± 11.3 mg/dL
CA (Blood biochemistry; day 38): 9.4 ± 0.3 mg/dL
CHOL (Blood biochemistry; day 38): 58.7 ± 4.0 mg/dL
CK (Blood biochemistry; day 38): 512.0 ± 39.6 U/L
CO2 (Blood biochemistry; day 38): 20.5 ± 2.8 mEq/L
CREAT (Blood biochemistry; day 38): 0.2 ± 0.0 mg/dL
DBILI (Blood biochemistry; day 38): 0.7 ± 0.5 mg/dL
GGT (Blood biochemistry; day 38): 5.3 ± 1.155 U/L
GLU (Blood biochemistry; day 38): 128.3 ± 16.9 mg/dL
PHOS (Blood biochemistry; day 38): 6.1 ± 1 mg/dL
TBILI (Blood biochemistry; day 38): 0.5 ± 0.2 mg/dL
TP (Blood biochemistry; day 38): 5.1 ± 0.2 g/dL
BUN CR (Blood biochemistry; day 38, BUN-to-creatinine ratio): 191 ± 16
SMILES: Nc1ccn([C@@H]2O[C@H](CO)[C@@H](O)C2(F)F)c(=O)n1 [Free GEM, gemcitabine]
circulatory half-life [1]: < 8 min
kidney histology (glomerular swelling and edema of Bowman's space) [2]: intermediate nephrotoxicity
median overall survival (PDAC): 6.7 months
body weight change [3]: reduced weight gain
protection of GEM against CDA [4]: not protected
ALT (Blood biochemistry; day 38): 42.5 ± 33.8 U/L
AST (Blood biochemistry; day 38): 222 ± 178 U/L

SMILES: c1ccc(-c2[nH]ncc2-c2ccnc3ccccc23)nc1 [LY364947]
composite fluorescence staining of PC overlap with ECs in tumor [5]: slight but non-significant reduction
duration of inhibition of Smad2 phosphorylation [6]: 6 h

SMILES: CC(=O)O[C@H]1C(=O)[C@@]2(C)[C@H]([C@H](OC(=O)c3ccccc3)[C@]3(O)C[C@H](OC(=O)[C@H](O)[C@@H](NC(=O)c4ccccc4)c4ccccc4)C(C)=C1C3(C)C)[C@]1(OC(C)=O)CO[C@@H]1C[C@@H]2O [paclitaxel]
increase of GEM content in the tumor (tumor): 2.8 fold
